Tests used:
[1] = test system: recombinant human anti-SARS-CoV antibody 03-018; assay type: binding; parameters: Binding of antibody 03-018 to linear peptides of the N protein of SARS-CoV Urbani / Binding of antibody 03-018 to looped/cyclic peptides of the N protein of SARS-CoV Urbani: unit not given here
[2] = test system: control sera (pooled serum of ten healthy LUMC hospital workers; commercial negative donor pooled serum from the Dutch bloodbank); assay type: binding, human; parameters: Binding of Control serum LUMC to linear peptides / Binding of Control serum Blood-bank to linear peptides / Binding of Control serum LUMC to looped peptides / Binding of Control Serum Blood-Bank to Looped peptides / Binding of Control serum LUMC to linear peptides of the protein M of SARS-CoV Urbani / Binding of Control serum Blood-bank to linear peptides of the protein M of SARS-CoV Urbani / Binding of Control serum LUMC to looped peptides of the protein M of SARS-CoV Urbani / Binding of Control Serum Blood-Bank to Looped peptides of the protein M of SARS-CoV Urbani: unit not given here
[3] = test system: rabbit serum obtained by immunizing a rabbit with the SARS-CoV strain Frankfurt 1; assay type: binding; parameters: Binding of a rabbit serum to linear peptides / Binding of a rabbit serum to looped peptides / Rabbit serum linear peptides / Rabbit serum looped peptides / Binding of a rabbit serum to linear peptides of protein N of SARS-CoV Urbani (Rabbit serum linear peptides) / Binding of a rabbit serum to looped/cyclic peptides of protein N of SARS-CoV Urbani (Rabbit serum looped peptides): unit not given here
[4] = test system: antibodies in sera from SARS patients (sera 1a, 1b, 2, 6, 37, 62, London, SARS-yellow, SARS-green); assay type: binding, human; parameters: Binding of serum 6 to linear peptides of protein X1 of SARS-CoV Urbani / Binding of serum 37 to linear peptides of protein X1 of SARS-CoV Urbani / Binding of serum 6 to looped/cyclic peptide (PEPSCAN-ELISA) / Binding of serum 37 to looped/cyclic peptide (PEPSCAN-ELISA) / Binding of serum 37 to looped/cyclic peptides of protein X1 of SARS-CoV Urbani / Binding of serum 6 to linear peptides of protein X2 / Binding of serum 37 to linear peptides of protein X2 / Binding of serum 37 to looped/cyclic peptides of protein X2 of SARS-CoV Urbani / Binding of serum 6 to linear peptides of protein M of SARS-CoV Urbani / Binding of serum 37 to linear peptides of protein M of SARS-CoV Urbani / Binding of serum 6 to looped/cyclic peptides of protein M of SARS-CoV Urbani / Binding of serum 37 to looped/cyclic peptides of protein M of SARS-CoV Urbani / Binding of serum 6 to linear peptides of protein X3 of SARS-CoV Urbani / Binding of serum 37 to linear peptides of protein X3 of SARS-CoV Urbani / Binding of serum 37 to looped/cyclic peptides of protein X3 of SARS-CoV Urbani / Binding of serum 6 to linear peptides of protein X4 of SARS-CoV Urbani / Binding of serum 37 to linear peptides of protein X4 of SARS-CoV Urbani / Binding of serum 37 to looped/cyclic peptides of protein X4 of SARS-CoV Urbani / Binding of serum 6 to linear peptides of protein X5 of SARS-CoV Urbani / Binding of serum 37 to linear peptides of protein X5 of SARS-CoV Urbani / Binding of serum 37 to looped/cyclic peptides of protein X5 of SARS-CoV Urbani / Binding of serum 6 to linear peptides of protein N of SARS-CoV Urbani / Binding of serum 37 to linear peptides of protein N of SARS-CoV Urbani / Binding of serum 6 to linear peptide (PEPSCAN-ELISA) / Binding of serum 1a to looped/cyclic peptides of protein N of SARS-CoV Urbani / Binding of serum 1b to looped/cyclic peptides of protein N of SARS-CoV Urbani / Binding of serum 2 to looped/cyclic peptides of protein N of SARS-CoV Urbani / Binding of serum 6 to looped/cyclic peptides of protein N of SARS-CoV Urbani / Binding of serum 37 to looped/cyclic peptides of protein N of SARS-CoV Urbani / Binding of serum 62 to looped/cyclic peptides of protein N of SARS-CoV Urbani / Binding of serum London to looped/cyclic peptides of protein N of SARS-CoV Urbani / Binding of serum SARS-green to looped/cyclic peptides of protein N of SARS-CoV Urbani: unit not given here

Sequence | Binding of antibody 03-018 to linear peptides of the N protein of SARS-CoV Urbani [1] | Binding of antibody 03-018 to looped/cyclic peptides of the N protein of SARS-CoV Urbani [1] | Binding of Control Serum Blood-Bank to Looped peptides [2] | Binding of Control serum Blood-bank to linear peptides [2] | Binding of Control serum LUMC to linear peptides [2] | Binding of Control serum LUMC to looped peptides [2] | Binding of a rabbit serum to linear peptides of protein N of SARS-CoV Urbani (Rabbit serum linear peptides) [3] | Binding of a rabbit serum to looped/cyclic peptides of protein N of SARS-CoV Urbani (Rabbit serum looped peptides) [3] | Binding of serum 1a to linear peptides of protein N of SARS-CoV Urbani [4] | Binding of serum 1a to looped/cyclic peptides of protein N of SARS-CoV Urbani [4] | Binding of serum 1b to linear peptides of protein N of SARS-CoV Urbani [4] | Binding of serum 1b to looped/cyclic peptides of protein N of SARS-CoV Urbani [4] | Binding of serum 2 to linear peptides of protein N of SARS-CoV Urbani [4] | Binding of serum 2 to looped/cyclic peptides of protein N of SARS-CoV Urbani [4] | Binding of serum 6 to looped/cyclic peptides of protein N of SARS-CoV Urbani [4] | Binding of serum 37 to looped/cyclic peptides of protein N of SARS-CoV Urbani [4] | Binding of serum 62 to looped/cyclic peptides of protein N of SARS-CoV Urbani [4] | Binding of serum London to looped/cyclic peptides of protein N of SARS-CoV Urbani [4] | Binding of serum SARS-green to looped/cyclic peptides of protein N of SARS-CoV Urbani [4] | Binding of serum SARS-yellow to looped/cyclic peptides of protein N of SARS-CoV Urbani [4] | further results
PNNTASWFTALTQHG | 0.1 | 0.3 | 0.7 | 0.5 | 0.7 | 0.7 | 0.1 | 0.4 | 0.2 | 0.4 | 0.1 | 0.2 | 0.2 | 0.3 | 0.2 | 0.6 | 0.5 | 0.3 | 0.7 | 0.6 | Binding of serum 6 to linear peptides of protein N of SARS-CoV Urbani [4]: 0.2; Binding of serum 37 to linear peptides of protein N of SARS-CoV Urbani [4]: 0.7; Binding of serum 62 to linear peptides of protein N of SARS-CoV Urbani [4]: 0.7; Binding of serum London to linear peptides of protein N of SARS-CoV Urbani [4]: 0.5; Binding of serum SARS-green to linear peptides of protein N of SARS-CoV Urbani [4]: 0.3; Binding of serum SARS-yellow to linear peptides of protein N of SARS-CoV Urbani [4]: 0.4
GRRGPEQTQGNFGDQ | 0.1 | 0.2 | 0.6 | 0.6 | 0.6 | 0.6 | 0.1 | 0.2 |  | 0.4 |  | 0.3 |  | 0.4 | 0.2 | 0.5 | 0.6 | 0.5 | 0.4 | 0.5 | Recognition of the peptide by sera of SARS-CoV infected individuals, and form (linear, looped/cyclic) in which it is recognized [4]: recognized in linear form
PQGLPNNTASWFTAL | 0.1 | 0.3 | 0.9 | 0.7 | 0.7 | 0.9 | 0.1 | 0.6 | 0.2 | 0.5 | 0.1 | 0.3 | 0.2 | 0.6 | 0.3 | 1.0 | 0.9 | 0.6 | 0.4 | 0.9 | Binding of serum 6 to linear peptides of protein N of SARS-CoV Urbani [4]: 0.1; Binding of serum 37 to linear peptides of protein N of SARS-CoV Urbani [4]: 0.7; Binding of serum 62 to linear peptides of protein N of SARS-CoV Urbani [4]: 0.7; Binding of serum London to linear peptides of protein N of SARS-CoV Urbani [4]: 0.4; Binding of serum SARS-green to linear peptides of protein N of SARS-CoV Urbani [4]: 0.2; Binding of serum SARS-yellow to linear peptides of protein N of SARS-CoV Urbani [4]: 0.5
GNFGDQDLIRQGTDY | 0.1 | 0.2 | 0.9 | 0.7 | 0.6 | 0.9 | 0.2 | 0.5 |  | 0.5 |  | 0.3 |  | 0.5 | 0.3 | 0.8 | 0.8 | 0.5 | 0.7 | 0.6 | Binding of serum 1a to linear peptide (PEPSCAN-ELISA) [4]: 0.3; Binding of serum 1b to linear peptide (PEPSCAN-ELISA) [4]: 0.2; Binding of serum 2 to linear peptide (PEPSCAN-ELISA) [4]: 0.2; Binding of serum 6 to linear peptide (PEPSCAN-ELISA) [4]: 0.2; Binding of serum 37 to linear peptide (PEPSCAN-ELISA) [4]: 0.8; Binding of serum 62 to linear peptide (PEPSCAN-ELISA) [4]: 0.7; Binding of serum London to linear peptide (PEPSCAN-ELISA) [4]: 0.6; Binding of serum SARS-green to linear peptide (PEPSCAN-ELISA) [4]: 0.5; Binding of serum SARS-yellow to linear peptide (PEPSCAN-ELISA) [4]: 0.8
KKQPTVTLLPAADMD | 0.1 | 0.2 |  |  |  |  | 0.1 | 0.2 | 0.3 | 0.3 | 0.2 | 0.2 | 0.2 | 0.2 | 0.1 | 0.4 | 0.2 | 0.2 | 0.7 | 0.2 | Control Serum Blood-Bank Looped peptides [2]: 0.3; Control serum Blood-bank linear peptides [2]: 0.7; Control serum LUMC linear peptides [2]: 0.6; Control serum LUMC looped peptides [2]: 0.3; Binding of serum 6 to linear peptides of protein N of SARS-CoV Urbani [4]: 0.2; Binding of serum 37 to linear peptides of protein N of SARS-CoV Urbani [4]: 1.0; Binding of serum 62 to linear peptides of protein N of SARS-CoV Urbani [4]: 0.7; Binding of serum London to linear peptides of protein N of SARS-CoV Urbani [4]: 0.6; Binding of serum SARS-green to linear peptides of protein N of SARS-CoV Urbani [4]: 1.3; Binding of serum SARS-yellow to linear peptides of protein N of SARS-CoV Urbani [4]: 0.5

Source: patent publication US20070128217A1 (priority 2003, published 2007)
